Experimental data: patent US20240415828A1, “TLR7 AGONIST AND COMBINATIONS FOR CANCER TREATMENT” (BIONTECH SE, priority 2021, published 2024)

Columns and labels:
[1] = test system: CT26 colon carcinoma cells; test: CT26 tumor model, BNT411 alone and with oxaliplatin (Example 4); format: in vivo, mouse
Procedure: FIG. 5. Anti-tumoral efficacy of BNT411 alone and in combination with oxaliplatin in a tumor mouse model. Mice (n=12 or 13 per group) subcutaneously inoculated with 2.5×10^5 CT26 colon carcinoma cells were used as tumor mouse model. Oxaliplatin was administered intraperitoneally (i.p.) (5 mg/kg, four times with 4 to 5 days between injections). BNT411 was administered i.v. at a dose level of 3 mg/kg eight times with 2 to 5 days interval between injections and at least 2 days after oxaliplatin therapy. Anti-tumor efficacy was evaluated by group mean tumor volumes in test versus control groups (vehicle only) on days 33 and 42 (at least 50% of test and control animals alive). IFNα levels in plasma were analyzed 1 h after first BNT411 administration and gp70+ T-cell populations in blood were analyzed on days 34 and 41. (A) Dosing schedule. (B) Graph showing the tumor volumes vs. days after inoculation. Group mean tumor volumes (±SEM (standard error of the mean)) for all live animals are shown. Treatment groups included nine to ten mice. Additionally, tumor volumes of animals that were euthanized due to tumor load were carried forward for as long as they were larger than the group median tumor volume (last observation carried forward (LOCF) values). Curves were discontinued for groups with less than 50% animals alive. (C) Graph showing IFNα serum level 60 min after first injection for the 4 groups (control (vehicle); BNT411 alone; oxaliplatin alone; BNT411 and oxaliplatin). IFNα levels in control and test groups are shown by vertical bars (±SEM), Statistical significance between groups is indicated by horizontal lines. P-value summary: ****=p≤0.0001; ***=p≤0.001; **=p≤0.01, […].
Serum levels of IFNα were measured by sandwich ELISA (Pbl Assay Systems) according to manufacturer's instructions.
BALB/c mice were inoculated s.c. with 2.5×10^5−5×10^5 CT26-WT into the flank, respectively. Once tumors reached palpable sizes, mice were randomly divided into treatment and control groups. Tumor volume was measured unblinded with a caliper and calculated using the formula (a×b^2)/2 (a being the largest and b being the smallest diameter of the tumor). Tumor growth was documented as mean tumor size with standard error disregarding single distant outliers. Treatment was initiated after 7-10 d with tumors having reached an average volume of about 10 mm^3. […]
Oxaliplatin was administered intraperitoneally (i.p.) (5 mg/kg, four times with 4 to 5 days between injections). […] Anti-tumor efficacy was evaluated by group mean tumor volumes in test versus control groups (vehicle only) on study days 33 and 42, (at least 50% of test and control animals alive). IFNα levels in plasma were analyzed 1 h after first BNT411 administration and gp70+ T-cell populations in blood on study days 34 and 41.

[2] = test system: CT26 colon carcinoma cells; test: CT26 tumor model, BNT411 alone and with anti-PD-L1 antibody (Example 5); format: in vivo; conditions: no adverse clinical effects, higher toxicities, or body weight loss
Procedure: FIG. 6. Anti-tumoral efficacy of BNT411 alone and in combination with an anti-PD-L1 antibody in a tumor mouse model. Mice (n=10 per group) subcutaneously inoculated with 5×10^5 CT26 colon carcinoma cells were used as tumor mouse model. The anti-PD-L1 antibody anti-PD-L1-mIgG1e3 was administered intraperitoneally (i.p.) at a dose level of 200 μg per animal. BNT411 was administered i.v. at a dose level of 3 mg/kg. All treatments were delivered once every five days for a total of six doses. Body weight changes and tumor growth were assessed on study day 21 when there were at least nine animals alive in each group. (A) Dosing schedule. (B) Graph showing the tumor volumes vs. study day. Mean tumor volume±SEM (mm^3) is depicted for each treatment. Last observations were carried forward until day 35 when only the animal who cleared the tumor was left. […]
BALB/c mice were inoculated s.c. with 2.5×10^5−5×10^5 CT26-WT into the flank, respectively. […] Tumor volume was measured unblinded with a caliper and calculated using the formula (a×b^2)/2 (a being the largest and b being the smallest diameter of the tumor). […]
Four groups of 10 animals were inoculated with 1×10^6 CT26 cells per animal into the dorsal right flank (day 0). […] Body weight changes and tumor growth were assessed on study day 21 when there were at least nine animals alive in each group. […]

## COCCc1nc2c(N)nc3ccccc3c2n1CCCCN(C(C)=O)C1CCOCC1 [BNT411]
[1]; BNT411 3 mg/kg i.v. eight times, oxaliplatin 5 mg/kg i.p. four times, group mean tumor volumes test vs control
  anti-tumor efficacy, T/C value: 65.8%
[1]; mouse, in vivo
  effect on tumor growth (conclusion): anti-tumor activity
[1]; two-way ANOVA
  IFNα levels, BNT411 monotherapy group vs combination of BNT411 and oxaliplatin: statistically significantly higher
[2]
  tolerability throughout treatment: well tolerated
